From patent publication US20230124862A1, “BISMUTH THIOL COMPOUNDS AND COMPOSITIONS AND METHODS OF TREATING MICROBIAL CO-INFECTIONS” (Microbion Corporation, priority 2020, published 2023)
Values joined by “and” are separate entries in the source; they are usually repeats but may differ in a detail not shown here. Equal entries are not always repeated. Where two headings read alike, the source gives them in different places.

Assay type: in vivo, beagle dogs
Description: Once adequately conditioned to the restraint device and face-masks, the animals are individually exposed to the test article aerosols. Animals receive a single face-mask inhalation exposure in a ramp study design to test article aerosols for up to 60 min. Animal observations during and post exposure determine the tolerance of inhaled BisEDT aerosols.
Blood Collections and Bioanalytical Analysis: Blood are collected for pharmacokinetic (PK) analysis prior to exposure, then at 4 hr (±5 min) post exposure, and again on Day 1, Day 2, Day 7 (pre- and 4 hr (±5 min)-post exposure), Day 8, Day 9, Day 10, Day 11, Day 12, Day 13, and Day 14. A total of 0.25 mL is collected at each timepoint. No PK blood is collected from the vehicle control (Group 1) animals; only animals exposed to BisEDT have blood collected for PK analysis. Collected samples are flash frozen without processing for shipment to Medpace for bioanalytical analysis. Additional blood is collected from all animals in all groups for hematology (1 mL) and clinical chemistry (1 mL) at baseline, Day 7 (pre-exposure), and again at euthanasia. Blood (2-2 mL) is collected from all animals at necropsy for coagulation analysis (d-Dimer, fibrinogen, PT, and PTT).
For clinical chemistry analyses, whole blood (1 mL) is placed into serum separator or clot tube and […] by centrifugation at a minimum of 1300 g at 2 to 8° C. for 10 (±1) min. Plasma samples are stored at −70 to −90° C. until analysis.
Clinical chemistry samples are analyzed on a Hitachi Modular Analytics Clinical Chemistry System (Roche Diagnostics, Indianapolis, Ind.).

SMILES: C1C[S][Bi]([S]CC[S][Bi]2[S]CC[S]2)[S]1 [BisEDT, Bismuth-1,2-ethanedithiol]
- AGR (dog 2001 Male): 1.9 and 2.0 and 1.8
- ALB (dog 2001 Male): 3.3 g/dL and 3.4 g/dL and 3.5 g/dL
- ALPK (dog 2001 Male): 130 IU/L and 140 IU/L and 128 IU/L
- ALT (dog 2001 Male): 22 IU/L
- AST (dog 2001 Male): 48 IU/L and 36 IU/L
- BUN (dog 2001 Male): 12 mg/dL and 16 mg/dL and 15 mg/dL
- CA2 (dog 2001 Male): 10.9 mg/dL and 10.8 mg/dL and 11.0 mg/dL
- CHOL (dog 2001 Male): 168 mg/dL and 167 mg/dL and 152 mg/dL
- CREA (dog 2001 Male): 0.7 mg/dL and 0.6 mg/dL
- Cl (dog 2001 Male): 109 mmo/L and 113 mmo/L and 108 mmo/L
- GGT (dog 2001 Male): 3 IU/L
- GLOB (dog 2001 Male): 1.7 g/dL and 2.0 g/dL
- GLUC (dog 2001 Male): 91 mg/dL and 97 mg/dL and 102 mg/dL
- K (dog 2001 Male): 4.5 mmo/L and 4.9 mmo/L and 4.7 mmo/L
- Na (dog 2001 Male): 149 mmo/L and 147 mmo/L
- TBIL (dog 2001 Male): 0.15 mg/dL
- TP (dog 2001 Male): 5.0 g/dL and 5.1 g/dL and 5.5 g/dL
- TRIG (dog 2001 Male): 66 mg/dL and 80 mg/dL and 63 mg/dL
- AGR (dog 2002 Female): 1.7 and 2.3
- ALB (dog 2002 Female): 3.3 g/dL and 3.6 g/dL and 3.7 g/dL
- ALT (dog 2002 Female): 18 IU/L and 29 IU/L and 27 IU/L
- AST (dog 2002 Female): 35 IU/L and 41 IU/L and 38 IU/L
- BUN (dog 2002 Female): 13 mg/dL and 14 mg/dL
- CA2 (dog 2002 Female): 10.9 mg/dL and 10.8 mg/dL and 10.6 mg/dL
- CHOL (dog 2002 Female): 138 mg/dL and 123 mg/dL and 114 mg/dL
- CREA (dog 2002 Female): 0.6 mg/dL
- Cl (dog 2002 Female): 110 mmo/L and 114 mmo/L and 113 mmo/L
- GGT (dog 2002 Female): 3 IU/L
- GLOB (dog 2002 Female): 1.9 g/dL and 1.6 g/dL
- GLUC (dog 2002 Female): 95 mg/dL and 98 mg/dL and 89 mg/dL
- K (dog 2002 Female): 5.0 mmo/L and 5.2 mmo/L and 4.6 mmo/L
- Na (dog 2002 Female): 149 mmo/L and 147 mmo/L and 148 mmo/L
- TBIL (dog 2002 Female): 0.15 mg/dL
- TP (dog 2002 Female): 5.2 g/dL and 5.3 g/dL
- TRIG (dog 2002 Female): 38 mg/dL and 39 mg/dL and 31 mg/dL
- AGR (dog 3001 Male): 2.0 and 2.1
- ALB (dog 3001 Male): 3.2 g/dL and 3.4 g/dL
- ALPK (dog 3001 Male): 142 IU/L and 135 IU/L and 121 IU/L
- ALT (dog 3001 Male): 26 IU/L and 24 IU/L and 22 IU/L
- AST (dog 3001 Male): 30 IU/L and 32 IU/L and 33 IU/L
- CA2 (dog 3001 Male): 10.7 mg/dL and 10.5 mg/dL and 10.0 mg/dL
- CHOL (dog 3001 Male): 100 mg/dL and 111 mg/dL
- CREA (dog 3001 Male): 0.6 mg/dL and 0.7 mg/dL and 1.0 mg/dL
- Cl (dog 3001 Male): 111 mmo/L and 110 mmo/L and 109 mmo/L
- GGT (dog 3001 Male): 3 IU/L
- GLOB (dog 3001 Male): 1.6 g/dL and 1.7 g/dL
- GLUC (dog 3001 Male): 100 mg/dL and 88 mg/dL and 51 mg/dL
- K (dog 3001 Male): 4.7 mmo/L and 5.1 mmo/L and 5.8 mmo/L
- Na (dog 3001 Male): 146 mmo/L and 148 mmo/L
- TBIL (dog 3001 Male): 0.15 mg/dL
- TP (dog 3001 Male): 4.8 g/dL and 5.1 g/dL and 5.0 g/dL
- TRIG (dog 3001 Male): 26 mg/dL and 34 mg/dL and 52 mg/dL
- AGR (dog 3002 Female): 2.3 and 1.8 and 2.6
- ALB (dog 3002 Female): 3.5 g/dL and 3.7 g/dL
- ALPK (dog 3002 Female): 164 IU/L and 90 IU/L and 176 IU/L
- ALT (dog 3002 Female): 28 IU/L and 20 IU/L
- AST (dog 3002 Female): 36 IU/L and 28 IU/L and 30 IU/L
- CA2 (dog 3002 Female): 11.2 mg/dL and 10.8 mg/dL and 10.4 mg/dL
- CHOL (dog 3002 Female): 126 mg/dL and 175 mg/dL and 141 mg/dL
- CREA (dog 3002 Female): 0.6 mg/dL and 0.5 mg/dL and 0.9 mg/dL
- Cl (dog 3002 Female): 112 mmo/L and 109 mmo/L and 110 mmo/L
- GGT (dog 3002 Female): 3 IU/L
- GLOB (dog 3002 Female): 1.5 g/dL and 2.0 g/dL and 1.4 g/dL
- GLUC (dog 3002 Female): 112 mg/dL and 90 mg/dL and 65 mg/dL
- K (dog 3002 Female): 5.5 mmo/L and 5.3 mmo/L and 5.9 mmo/L
- Na (dog 3002 Female): 149 mmo/L and 145 mmo/L
- TBIL (dog 3002 Female): 0.15 mg/dL
- TP (dog 3002 Female): 5.0 g/dL and 5.5 g/dL and 5.1 g/dL
- TRIG (dog 3002 Female): 34 mg/dL and 43 mg/dL and 58 mg/dL
- AGR (dog 4001 Male): 2.3 and 1.8 and 1.9
- ALB (dog 4001 Male): 3.6 g/dL and 3.4 g/dL and 3.2 g/dL
- ALPK (dog 4001 Male): 103 IU/L and 114 IU/L and 119 IU/L
- ALT (dog 4001 Male): 27 IU/L and 28 IU/L
- AST (dog 4001 Male): 32 IU/L and 39 IU/L and 34 IU/L
- BUN (dog 4001 Male): 11 mg/dL and 12 mg/dL
- CA2 (dog 4001 Male): 10.8 mg/dL and 10.6 mg/dL and 10.4 mg/dL
- CHOL (dog 4001 Male): 153 mg/dL and 147 mg/dL and 111 mg/dL
- CREA (dog 4001 Male): 0.7 mg/dL and 0.6 mg/dL
- Cl (dog 4001 Male): 120 mmo/L and 116 mmo/L and 113 mmo/L
- GGT (dog 4001 Male): 3 IU/L
- GLOB (dog 4001 Male): 1.6 g/dL and 1.9 g/dL and 1.7 g/dL
- GLUC (dog 4001 Male): 102 mg/dL and 82 mg/dL and 86 mg/dL
- K (dog 4001 Male): 4.7 mmo/L and 4.8 mmo/L
- Na (dog 4001 Male): 152 mmo/L and 147 mmo/L and 145 mmo/L
- TBIL (dog 4001 Male): 0.15 mg/dL
- TP (dog 4001 Male): 5.2 g/dL and 5.3 g/dL and 4.9 g/dL
- TRIG (dog 4001 Male): 49 mg/dL and 46 mg/dL and 40 mg/dL
- AGR (dog 4002 Female): 1.7 and 1.8
- ALB (dog 4002 Female): 3.5 g/dL
- ALPK (dog 4002 Female): 147 IU/L and 103 IU/L
- ALT (dog 4002 Female): 20 IU/L and 21 IU/L
- AST (dog 4002 Female): 32 IU/L and 35 IU/L
- BUN (dog 4002 Female): 13 mg/dL and 12 mg/dL
- CA2 (dog 4002 Female): 11.1 mg/dL and 11.2 mg/dL
- CHOL (dog 4002 Female): 182 mg/dL and 169 mg/dL
- CREA (dog 4002 Female): 0.6 mg/dL and 0.5 mg/dL
- Cl (dog 4002 Female): 116 mmo/L and 112 mmo/L
